# In paper PMC5059921, “Chalepin: isolated from Ruta angustifolia L. Pers induces mitochondrial mediated apoptosis in lung carcinoma cells” (BMC Complementary and Alternative Medicine, 2016):
# Where two headings read alike, the source gives them in different places.
# Tests used:
# A549 cell line = assay: SRB in vitro cytotoxicity screening; format: cell-based, human
# Protocol: (§1) The human cell lines A549 (lung cancer) and Ca Ski (cervical cancer) were cultured as monolayer in RPMI 1640 growth media whereas HCT-116 (colon cancer) and MRC5 (human normal lung fibroblasts) was cultured in McCoy’s 5A and EMEM medium, respectively. All cells were purchased from the […] (ATCC, USA). All the media were supplemented with 10 % v/v foetal bovine serum (FBS), 100 μg/mL penicillin/streptomycin, and 50 μg/mL amphotericin B. The cells were cultured in a 5 % CO2 incubator at 37 °C.
# (§2) The monolayer cell culture was detached using accutase and the cell count was adjusted to 2.5 x10^5 -3.0 x10^5 cells/mL using medium containing feotal bovine serum. The cells were then plated into 96 wells with a cell density of 5000-7000 cells/well and then incubated for 24 h to allow adherence of cells to the base of well of the plates. The media was then removed and 200 μl of fresh media containing different concentration of various extracts or isolated compounds were added. Cisplatin was used as the positive control. The plates were incubated for 24, 48 and 72 h at 37 °C and 5 % CO2. The cytotoxicity of the extracts and isolated compounds were screened using the […] (SRB) assay. This assay was first described by Houghton in 2007 [8]. The incubation was halted by gentle addition of 50 μl ice cold 4 % trichloroacetic acid (TCA) to each well and the plates were incubated at 4 °C for 1 h. Then, the supernatant was discarded and the plates were washed with distilled water for 5 times and then air dried. SRB dye, 50 μl, (0.4 % w/v) was added into each well and the treated cells and control were incubated at room temperature for 30 min. The unbound dye was removed by rapid washing four times with 1 % acetic acid. The plates were then air dried and 100 μl of tris base (10 mM unbuffered, pH 10.5) was added and the plates were shaken at 500 rpm for 5 min to solublize the bound SRB stain. The plates were then read with an ELISA reader (Synergy H1 Hybrid) at an absorbance of 492 nm.
# [1] = test system: MRC5 (human normal lung fibroblasts); assay: SRB in vitro cytotoxicity screening (toxicity to normal cells); format: cell-based; conditions: Homo sapiens, MRC5, isolated compounds, 72 h, read-out: IC50 in μg/ml (μM) (MRC5) 72 h (converted)
# Protocol: as §1, §2
# A549 cells [2] = assay: Intracellular ROS measurement (DCFH-DA); format: cell-based, human; conditions: A549, 45 μg/ml, 6 h incubation
# Protocol: The assay was conducted as described by Ling et al. with some minor modifications. The ROS measurement was done using the fluorescent probe 2’,7’-dichlorofluorescein diacetate (DCFH-DA) that enabled the monitoring of intracellular accumulation of ROS. The A549 cells were seeded into a 96 well plate with a density of 2×10^4 cells per well and allowed to attach overnight. Treatment with chalepin at various concentrations were done the next day and incubated for different time periods. At the end of the incubation period, the media was removed and 5 μM of DCFH-DA which is diluted in media was added to the cells and incubated for 40 min at 37 °C. The cells were then washed three times with clear media and the fluorescence intensity (excitation = 485 nm and emission = 530 nm) was measured using a microplate reader. The morphology of the cells were observed using a fluorescence microscope.
# caspase 9 in A549 cells = assay: Caspase-9 activity (CaspILLUME, flow cytometry); format: cell-based, human; conditions: 45 μg/ml
# Protocol: (§3) Caspase activity assays were performed according to the instructions in the manual (CaspILLUME, Genetex). Cells were seeded at a density of 1×10^6 cells per culture dish. After being subjected to treatment for 48 and 72 h, the cells were detached with accutase, washed, and resuspended in PBS. Next, 300 μL of each sample was aliquoted into centrifuge tubes, after which 1 μL of fluorescent substrate (FITC-DEVD-FMK for caspase 3 and FITC-LEHD-FMK for caspase 9 activity) was added to each tube and incubated for 1 h at 37°C incubator. At the end of the incubation period, the cells were centrifuged at 3000 rpm for 5 min and the supernatant was removed. After that, the cells were resuspended in 0.5 mL wash buffer (provided in the kit) and centrifuged at 3000 rpm for 5 min. This step was repeated before performing the analysis with flow cytometer (Accuri C6) and a minimum of 10,000 events were acquired for each replicate.
# caspase 3 in A549 cells = assay: Caspase-3 activity (CaspILLUME, flow cytometry); format: cell-based, human; conditions: for active caspase 3, V1-R (apoptotic population): 45 ug/ml; for fold increase of caspase 3 activity vs untreated control: 45 μg/ml
# Protocol: as §3
# A549 cells [3] = assay: Western blot analysis of apoptotic proteins; format: cell-based, human
# [4] = test system: hepatitis C virus, hepatoma cell line (Huh7.5); design: method as in PMID 25454460; conditions: cited from earlier work
# [5] = A549, 36 μg/ml, 2,4,8,12 and 24 h
structure (smiles),measurement,setting,value
"C=CC(C)(C)c1cc2cc3c(cc2oc1=O)O[C@H](C(C)(C)O)C3 [Chalepin, chalepin]",IC50,"A549 cell line; Homo sapiens, A549, 48 h, isolated compounds, 48 h, value in brackets, read-out: IC50 in μg/ml (μM) (A549) 48 h (converted)",90.1 µM
same,IC50,"A549 cell line; Homo sapiens, A549, 48 h, isolated compounds, 48 h, read-out: IC50 in μg/ml (μM) (A549) 48 h (converted)",28.3 ± 1.06 µg/mL
same,IC50,"A549 cell line; Homo sapiens, A549, 72 h, isolated compounds, 72 h, read-out: IC50 in μg/ml (μM) (A549) 72 h (converted)",8.69 ± 2.43 µg/mL
same,IC50,"A549 cell line; Homo sapiens, A549, 72 h, read-out: IC50 in μg/ml (μM) (A549) 72 h, isolated compounds, 72 h, value in brackets",27.6 µM
same,IC50,"A549 cell line; isolated compounds, 72 h, value in brackets, read-out: IC50 in μg/ml (μM) (A549) 72 h (converted)",28 µM
same,IC50,[1]; value in brackets,74.5 µM
same,IC50,[1],23.4 ± 0.6 µg/mL
same,ROS fold increase vs untreated control,A549 cells [2],62.24 fold
same,"active caspase 9, V1-R (apoptotic population)","caspase 9 in A549 cells; A549, 48 h",22.57 ± 0.21%
same,"active caspase 9, V1-R (apoptotic population)","caspase 9 in A549 cells; A549, 72 h",33.5 ± 0.35%
same,fold increase in activation of caspase 9 vs untreated control,"caspase 9 in A549 cells; A549, 72 h",8.44 fold
same,"active caspase 3, V1-R (apoptotic population)","caspase 3 in A549 cells; A549, 48 h",26.40 ± 0.79%
same,fold increase of caspase 3 activity vs untreated control,"caspase 3 in A549 cells; A549, 48 h",9.32 fold
same,"active caspase 3, V1-R (apoptotic population)","caspase 3 in A549 cells; A549, 72 h",49.07 ± 0.63%
same,fold increase of caspase 3 activity vs untreated control,"caspase 3 in A549 cells; A549, 72 h",8.71 fold
same,Procaspase 3,A549 cells [3]; [5],downregulation
same,Procaspase 9,A549 cells [3]; [5],downregulation
same,"anti-apoptotic gene products Bcl-2, survivin, XIAP, Bcl-xl and cFLIP",A549 cells [3]; [5],downregulate
same,cleaved caspase 3,A549 cells [3]; [5],upregulation
same,expression of Bax,A549 cells [3]; [5],upregulation
same,expression of cytochrome c,A549 cells [3]; [5],upregulation
same,expression of p53,A549 cells [3]; [5],upregulation
same,quantity of PARP expressed,A549 cells [3]; [5],decreased with time
same,Bak,"A549 cells [3]; A549, 36 μg/ml, time dependently",upregulated
same,replication of hepatitis C virus,[4],stop the replication
